# Test results published in patent US10961198B2, “Farnesoid X receptor agonists and uses thereof” (Metacrine, Inc., priority 2017, dated 2021).
# Target: hFXR (Homo sapiens (Human), UniProt Q96RI1)
# Assay: In Vitro FXR Assay (TK)
# Format: cell-based
# Conditions: CV-1 cells transfected with hFXR, hRXR, TK-ECRE-luc and pCMX-YFP; incubated 18 hrs; luminescence; maximum efficacy <25% of the Fexarmine control classified as '+'
# Procedure: Example B-1: In Vitro FXR Assay (TK)
# CV-1 cells were seeded at a density of 2,000,000 cells in a T175 flask with DMEM+10% charcoal double-stripped FBS and incubated at 37° C. in 5% CO2 for 18 h (O/N).
# After 18 h of incubation, the medium in the T175 flask was changed with fresh DMEM+10% charcoal super-stripped serum. In a polypropylene tube, 2500 μL OptiMEM (Life Technologies, Cat #31985-062) was combined with expression plasmids for hFXR, hRXR, TK-ECRE-luc and pCMX-YFP. The tube was then briefly vortexed and incubated at room temperature for 5 minutes. Transfection reagent (X-tremeGENE HP from Roche, Cat #06 366 236 001) was added to the OptiMEM/plasmid mixture vortexed and incubated at room temperature for 20 minutes. Following incubation, the transfection reagent/DNA mixture complex was added to cells in the T175 flask and the cells were incubated at 37° C. in 5% CO2 for 18 h (O/N).
# Compounds were serially diluted in DMSO and added to transfected CV-1 cells. The cells were then incubated for 18 hrs. The next day cells were lysed and examined for luminescence.
# hFXR, sequence (Q96RI1 whole entry): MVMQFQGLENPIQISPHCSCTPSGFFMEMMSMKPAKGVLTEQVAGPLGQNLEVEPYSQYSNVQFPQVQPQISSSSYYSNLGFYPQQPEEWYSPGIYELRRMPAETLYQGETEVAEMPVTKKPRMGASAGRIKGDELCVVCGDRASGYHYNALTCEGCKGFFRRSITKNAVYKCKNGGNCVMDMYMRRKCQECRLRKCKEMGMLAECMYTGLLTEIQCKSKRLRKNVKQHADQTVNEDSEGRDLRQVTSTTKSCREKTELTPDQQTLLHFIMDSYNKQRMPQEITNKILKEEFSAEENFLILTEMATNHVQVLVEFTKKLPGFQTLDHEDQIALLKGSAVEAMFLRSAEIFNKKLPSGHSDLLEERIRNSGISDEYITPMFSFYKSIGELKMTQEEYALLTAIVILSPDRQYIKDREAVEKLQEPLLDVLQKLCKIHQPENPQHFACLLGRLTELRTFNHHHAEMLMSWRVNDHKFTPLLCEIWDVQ
# hFXR, sequence (P19793 whole entry partner): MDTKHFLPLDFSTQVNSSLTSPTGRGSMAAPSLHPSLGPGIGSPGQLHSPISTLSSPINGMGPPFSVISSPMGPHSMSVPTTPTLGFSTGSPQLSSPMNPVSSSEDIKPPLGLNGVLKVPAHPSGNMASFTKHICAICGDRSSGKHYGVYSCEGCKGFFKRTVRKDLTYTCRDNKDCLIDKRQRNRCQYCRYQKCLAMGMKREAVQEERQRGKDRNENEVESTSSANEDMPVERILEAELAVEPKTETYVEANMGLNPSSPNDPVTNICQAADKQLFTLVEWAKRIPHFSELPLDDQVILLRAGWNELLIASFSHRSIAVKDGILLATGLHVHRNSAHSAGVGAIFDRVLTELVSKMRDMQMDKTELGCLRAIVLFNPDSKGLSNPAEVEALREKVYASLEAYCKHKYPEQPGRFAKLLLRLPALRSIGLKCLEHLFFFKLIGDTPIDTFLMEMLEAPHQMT
row,SMILES,EC50 [nM]
1,"CCC(C)n1cc(-c2cccc(N(C[C@H]3CC[C@H](c4ccc(OC)c(C)c4)CC3)C(=O)[C@H]3CC[C@H](O)CC3)c2)cn1 (stereo partly drawn) [Compound 3.13, trans-N-(3-(1-(sec-Butyl)-1H-pyrazol-4-yl)phenyl)-4-hydroxy-N-((trans-4-(4-methoxy-3-methylphenyl)cyclohexyl)methyl)cyclohexanecarboxamide]",≤ 250
2,"COc1ccc([C@H]2CC[C@H](CN(c3cccc(C#Cc4cnn(C)c4)c3)C(=O)[C@H]3CC[C@H](O)CC3)CC2)cc1C [Compound 4, trans-4-Hydroxy-N-((trans-4-(4-methoxy-3-methylphenyl)cyclohexyl)methyl)-N-(3-((1-methyl-1H-pyrazol-4-yl)ethynyl)phenyl)cyclohexanecarboxamide]",≤ 250
3,"Cn1nc(F)c2cc([C@H]3CC[C@H](CN(c4cccc(-c5cnn(C6CC6)c5)c4)C(=O)[C@H]4CC[C@H](O)CC4)CC3)ccc21 [Compound 5, trans-N-(3-(1-Cyclopropyl-1H-pyrazol-4-yl)phenyl)-N-((trans-4-(3-fluoro-1-methyl-1H-indazol-5-yl)cyclohexyl)methyl)-4-hydroxycyclohexanecarboxamide]",≤ 250

# Further lines, results first:
row,EC50 [nM],SMILES
1,≤ 250,"COc1ccc([C@H]2CC[C@H](CN(c3cccc(C#Cc4cn[nH]c4)c3)C(=O)[C@H]3CC[C@H](O)CC3)CC2)cc1C [Compound 4.01, trans-N-(3-((1H-Pyrazol-4-yl)ethynyl)phenyl)-4-hydroxy-N-((trans-4-(4-methoxy-3-methylphenyl)cyclohexyl)methyl)cyclohexanecarboxamide]"
2,≤ 250,"COc1ccc([C@H]2CC[C@H](CN(c3cccc(C#Cc4ccn(C)n4)c3)C(=O)[C@H]3CC[C@H](O)CC3)CC2)cc1C [Compound 4.02, trans-4-Hydroxy-N-((trans-4-(4-methoxy-3-methylphenyl)cyclohexyl)methyl)-N-(3-((1-methyl-1H-pyrazol-3-yl)ethynyl)phenyl)cyclohexanecarboxamide]"
3,≤ 250,"COc1ccc([C@H]2CC[C@H](CN(c3cccc(C#Cc4cc[nH]n4)c3)C(=O)[C@H]3CC[C@H](O)CC3)CC2)cc1C [Compound 4.03, trans-N-(3-((1H-Pyrazol-3-yl)ethynyl)phenyl)-4-hydroxy-N-((trans-4-(4-methoxy-3-methylphenyl)cyclohexyl)methyl)cyclohexanecarboxamide]"
4,250 to 1000,"COc1ccc([C@H]2CC[C@H](CN(c3cccc(-n4ccc(C)n4)c3)C(=O)[C@H]3CC[C@H](O)CC3)CC2)cc1C [Compound 5.01, trans-4-Hydroxy-N-((trans-4-(4-methoxy-3-methylphenyl)cyclohexyl)methyl)-N-(3-(3-methyl-1H-pyrazol-1-yl)phenyl)cyclohexanecarboxamide]"
5,≤ 250,"CN(C)c1ccc([C@H]2CC[C@H](CN(c3cccc(-c4cnn(C5CC5)c4)c3)C(=O)[C@H]3CC[C@H](O)CC3)CC2)cn1 [Compound 5.02, trans-N-(3-(1-Cyclopropyl-1H-pyrazol-4-yl)phenyl)-N-((trans-4-(6-(dimethylamino)pyridin-3-yl)cyclohexyl)methyl)-4-hydroxycyclohexanecarboxamide]"
6,≤ 250,"COc1ccc([C@H]2CC[C@H](CN(c3cccc(-c4cnn(C5CC5)c4)c3)C(=O)[C@H]3CC[C@H](O)CC3)CC2)cc1Cl [Compound 5.03, trans-N-((trans-4-(3-Chloro-4-methoxyphenyl)cyclohexyl)methyl)-N-(3-(1-cyclopropyl-1H-pyrazol-4-yl)phenyl)-4-hydroxycyclohexanecarboxamide]"
7,≤ 250,"COc1ccc([C@H]2CC[C@H](CN(c3cccc(-c4cnn(C5CC5)c4)c3)C(=O)[C@H]3CC[C@H](O)CC3)CC2)nc1C [Compound 5.04, trans-N-(3-(1-cyclopropyl-1H-pyrazol-4-yl)phenyl)-4-hydroxy-N-((trans-4-(5-methoxy-6-methylpyridin-2-yl)cyclohexyl)methyl)cyclohexanecarboxamide]"
